# Results from PubChem BioAssay (NCI).
#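 Method: 48-hour compound exposure of cells in 96-well plates, five concentrations, linear interpolation of endpoints. Here, GI50 denotes the concentration required for 50% inhibition of growth. At the TGI there is no net growth.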
# How the values were obtained:
# Assay in all cases: growth of human tumour cells (NCI), 48 h
# RPMI-8226 leukemia = tested on: RPMI-8226 leukemia
# OVCAR-3 ovarian = tested on: OVCAR-3 ovarian
# UACC-257 melanoma = tested on: UACC-257 melanoma
# SNB-19 CNS = tested on: SNB-19 CNS
# T-47D breast = tested on: T-47D breast
# UO-31 renal = tested on: UO-31 renal
# MDA-MB-435 = tested on: MDA-MB-435
# NCI-H522 lung = tested on: NCI-H522 lung
# K-562 leukemia = tested on: K-562 leukemia
# SK-OV-3 ovarian = tested on: SK-OV-3 ovarian
# U251 CNS = tested on: U251 CNS
Structure (SMILES),TGI (RPMI-8226 leukemia),TGI (OVCAR-3 ovarian),TGI (UACC-257 melanoma),TGI (SNB-19 CNS),TGI (T-47D breast),TGI (UO-31 renal),TGI (MDA-MB-435),TGI (NCI-H522 lung),TGI (K-562 leukemia),TGI (SK-OV-3 ovarian),TGI (U251 CNS),GI50 (NCI-H522 lung)
COc1c(O)cc(C(=O)O[C@@H]2Cc3c(O)cc(O)cc3O[C@@H]2c2cc(O)c(O)c(O)c2)cc1O,57.7 µM,> 100 µM,> 100 µM,43 µM,86 µM,50.5 µM,33.3 µM,54.6 µM,46.8 µM,> 100 µM,–,–
Cc1cc(C#N)c(Nc2c(C)cccc2[N+](=O)[O-])s1,> 100 µM,> 100 µM,> 100 µM,> 100 µM,> 100 µM,> 100 µM,> 100 µM,73.6 µM,> 100 µM,> 100 µM,> 100 µM,–
Cc1ccc(C)c(NC(=O)C(Cc2c[nH]c3ccccc23)NC(=O)OCc2ccccc2)c1 (stereo not given),44 µM,> 100 µM,34.3 µM,27.6 µM,38 µM,34.9 µM,> 100 µM,69.1 µM,28.9 µM,50.1 µM,35.1 µM,–
CCOC1SC(SC)=NN1C(=O)C(OC(C)=O)C(OC(C)=O)C(OC(C)=O)C(OC(C)=O)C(=O)N1N=C(SC)SC1OCC (stereo not given),> 100 µM,> 100 µM,> 100 µM,> 100 µM,> 100 µM,> 100 µM,> 100 µM,> 100 µM,> 100 µM,> 100 µM,> 100 µM,–
CCOP(C)(=O)C(Nc1ccc(F)cc1)c1ccc(F)cc1 (stereo not given),> 100 µM,> 100 µM,> 100 µM,> 100 µM,> 100 µM,> 100 µM,> 100 µM,> 100 µM,> 100 µM,> 100 µM,> 100 µM,–
CC(=O)OCc1cn(S(=O)(=O)c2ccc(C)cc2)cn1,> 100 µM,85.9 µM,–,> 100 µM,> 100 µM,> 100 µM,> 100 µM,> 100 µM,> 100 µM,> 100 µM,> 100 µM,–
Cn1cnc([N+](=O)[O-])c1Sc1nc(N)nc2c1ncn2Cc1ccccc1,72.5 µM,9.97 µM,30.1 µM,> 100 µM,40.9 µM,34.2 µM,72.4 µM,24.1 µM,> 100 µM,57 µM,60.1 µM,–
CC1Cc2cc(O)ccc2C2[C@@H]1C1CC[C@H](O)[C@@]1(C)C[C@@H]2O[N+](=O)[O-] (stereo not given in full),50.2 µM,> 84.1 µM,72.3 µM,98.7 µM,> 84.3 µM,63.7 µM,16.9 µM,61.3 µM,49.4 µM,> 100 µM,23 µM,–
COc1cc(OC)nc(Nc2c(C#N)c3nc4ccccc4n3c3ccccc23)n1,> 100 µM,> 100 µM,> 100 µM,86.2 µM,> 100 µM,> 100 µM,> 100 µM,64 µM,> 100 µM,> 100 µM,> 100 µM,–
N#CC(c1cc(Cl)ncn1)c1nc2ccccc2s1 (stereo not given),> 100 µM,22.8 µM,32.2 µM,20.3 µM,> 100 µM,> 100 µM,62 µM,4.47 µM,> 100 µM,28.8 µM,18.2 µM,–
O=C1NN(c2ccccc2)C(=O)C2C3c4ccccc4C(c4ccccc43)C12 (stereo not given),> 100 µM,> 100 µM,> 100 µM,> 100 µM,> 100 µM,> 100 µM,> 100 µM,> 100 µM,> 100 µM,> 100 µM,> 100 µM,–
O=C(O)c1cc(Sc2ccc([N+](=O)[O-])c(C(=O)O)c2)ccc1[N+](=O)[O-],> 100 µM,> 100 µM,> 100 µM,> 100 µM,> 100 µM,> 100 µM,> 100 µM,> 100 µM,> 100 µM,> 100 µM,> 100 µM,> 100 µM
COC1(C)C=NCC(C)(C)NC(=O)C(C)(OC)C=NCC(C)(C)NC1=O (stereo not given),> 10 µM,–,> 10 µM,> 10 µM,> 10 µM,–,> 10 µM,> 10 µM,> 10 µM,> 10 µM,> 10 µM,–
CC(=O)OC1COC(Nn2c(=O)[nH]c3ccccc3c2=O)C(OC(C)=O)C1OC(C)=O (stereo not given),> 100 µM,> 100 µM,> 100 µM,> 100 µM,> 100 µM,> 100 µM,> 100 µM,–,> 100 µM,> 100 µM,> 100 µM,–
[N-]=[N+]=NC1=C(c2ccccc2)C(=O)c2cccc3cccc1c23,> 100 µM,> 100 µM,29.2 µM,> 100 µM,82.1 µM,> 100 µM,> 100 µM,–,> 100 µM,> 100 µM,> 100 µM,–
N=c1oc2c(Cl)cc(Cl)cc2cc1C(=O)Nc1ccccn1,60.8 µM,57.5 µM,> 100 µM,> 100 µM,> 100 µM,> 100 µM,> 100 µM,–,> 100 µM,> 100 µM,> 100 µM,–
